Measurements: publication PMC7980952 (Clinical cancer research : an official journal of the …, 2019)
Entries after “also recorded” stand apart in the source; their conditions may differ. Like-named read-outs stand apart in the source and are kept apart here.

Assays:
IDO = settings: ref Siu et al. 2017; cited from earlier work
IDO1 = test: Plasma Kyn as peripheral biomarker of IDO1 activity; format: in vivo, human
solid tumors = settings: ref Nayak et al. 2018, cited from earlier work
[1] = Navoximod plasma pharmacokinetics; format: in vivo, human; settings: for PK profile (linearity, dose proportionality): 50–1000 mg BID oral, with atezolizumab; for Tmax: human, plasma, po, 50–1000 mg BID
preclinical tumor models = settings: combination with anti-PD-L1 vs single agents; ref Spahn et al. 2015; cited from earlier work
[2] = tested on: locally advanced or metastatic solid tumors; test: Tumor response by investigators per RECIST v1.1; format: in vivo, human; settings: with atezolizumab; for ORR in IDO1 0 patients / ORR in PDL1 0 patients / ORR in PDL1 IHC 1/2/3 patients / ORR in IDO1 IHC 1/2/3 patients / ORR in all patients: expansion
[3] = Phase Ib safety assessments: adverse events; settings: in combination with atezolizumab
[4] = in vivo
melanoma = settings: ref Long et al. 2018, cited from earlier work
[5] = Phase 1a, 22 patients with solid tumors

C[C@@H](C(=O)Nc1ccc(Cl)cc1)C1CCC(c2ccnc3ccc(F)cc23)CC1 (some centres unmarked) [BMS-986205]
In vitro potency compared with epacadostat and navoximod (IDO): greater in vitro potency

O[C@H](C[C@H]1c2c(F)cccc2-c2cncn21)[C@H]1CC[C@H](O)CC1 [Navoximod]
Mean change in plasma Kyn from the pre-dose baseline (IDO1; patients receiving at least 200 mg navoximod): decreased at all post-dose timepoints beyond 1 hour | Change in plasma Kyn (IDO1; relative to Cycle 1 Day 1 pre-dose levels): generally decreased with increasing doses | Clinical activity as a single agent (solid tumors; [5]): limited clinical activity | Tolerability as a single agent (solid tumors; [5]): generally well-tolerated | Hepatic adverse events, single agent (solid tumors): Hepatic adverse events had been reported | PK profile (linearity, dose proportionality) [1]: linear PK profile; also recorded: dose-proportional and linear PK | PK profile (linearity, dose proportionality) ([1]; listed as navoximod): dose-proportional and linear PK profile | Tmax ([1]; Tmax range): 0.25 to 4 h | Tmax ([1]; median Tmax): ~1 h | PK in combination with atezolizumab compared with single agent ([1]; in vivo): consistent with single-agent PK observations | Activation of intratumoral CD8+ T cells and tumor growth inhibition (preclinical tumor models): more effectively activates intratumoral CD8+ T cells and inhibits tumor growth compared to either single agent alone | Partial response (PR), best overall response ([2]; dose escalation, all patients (n=66)): 9% | ORR in IDO1 0 patients ([2]; All Patients, n=19): 0 (0%) Responders (%) | ORR in PDL1 0 patients ([2]; All Patients, n=27): 0 (0%) Responders (%) | ORR in PDL1 IHC 1/2/3 patients ([2]; All Patients, n=60): 9 (15%) Responders (%) | ORR in IDO1 IHC 1/2/3 patients ([2]; All Patients, n=68): 9 (13%) Responders (%) | ORR in all patients ([2]; All Patients, n=91): 10 (11%) Responders (%) | ORR in IDO1 0 patients ([2]; Biopsy A (CIT naïve), n=3): 0 (0%) Responders (%) | ORR in PDL1 0 patients ([2]; Biopsy A (CIT naïve), n=5): 0 (0%) Responders (%) | ORR in PDL1 IHC 1/2/3 patients ([2]; Biopsy A (CIT naïve), n=6): 0 (0%) Responders (%) | ORR in IDO1 IHC 1/2/3 patients ([2]; Biopsy A (CIT naïve), n=8): 0 (0%) Responders (%) | ORR in all patients ([2]; Biopsy A (CIT naïve), n=11): 0 (0%) Responders (%) | ORR in IDO1 0 patients ([2]; Biopsy B (CIT naïve), n=4): 0 (0%) Responders (%) | ORR in PDL1 0 patients ([2]; Biopsy B (CIT naïve), n=4): 0 (0%) Responders (%) | ORR in IDO1 IHC 1/2/3 patients ([2]; Biopsy B (CIT naïve), n=8): 1 (12%) Responders (%) | ORR in PDL1 IHC 1/2/3 patients ([2]; Biopsy B (CIT naïve), n=8): 1 (12%) Responders (%) | ORR in all patients ([2]; Biopsy B (CIT naïve), n=12): 1 (8%) Responders (%) | ORR in IDO1 0 patients ([2]; NSCLC (CIT naïve), n=8): 0 (0%) Responders (%) | ORR in PDL1 0 patients ([2]; NSCLC (CIT naïve), n=11): 0 (0%) Responders (%) | ORR in PDL1 IHC 1/2/3 patients ([2]; NSCLC (CIT naïve), n=14): 2 (14%) Responders (%) | ORR in IDO1 IHC 1/2/3 patients ([2]; NSCLC (CIT naïve), n=17): 2 (12%) Responders (%) | ORR in all patients ([2]; NSCLC (CIT naïve), n=26): 2 (8%) Responders (%) | ORR in IDO1 0 patients ([2]; NSCLC (relapsed), n=1): 0 (0%) Responders (%) | ORR in PDL1 0 patients ([2]; NSCLC (relapsed), n=4): 0 (0%) Responders (%) | ORR in PDL1 IHC 1/2/3 patients ([2]; NSCLC (relapsed), n=11): 0 (0%) Responders (%) | ORR in IDO1 IHC 1/2/3 patients ([2]; NSCLC (relapsed), n=14): 0 (0%) Responders (%) | ORR in all patients ([2]; NSCLC (relapsed), n=16): 0 (0%) Responders (%) | ORR in IDO1 0 patients ([2]; RCC (CIT naïve), n=0): 0 (0%) Responders (%) | ORR in PDL1 0 patients ([2]; RCC (CIT naïve), n=0): 0 (0%) Responders (%) | ORR in IDO1 IHC 1/2/3 patients ([2]; RCC (CIT naïve), n=7): 3 (43%) Responders (%) | ORR in PDL1 IHC 1/2/3 patients ([2]; RCC (CIT naïve), n=7): 3 (43%) Responders (%) | ORR in all patients ([2]; RCC (CIT naïve), n=7): 3 (43%) Responders (%) | ORR in IDO1 0 patients ([2]; TNBC (CIT naïve), n=3): 0 (0%) Responders (%) | ORR in PDL1 0 patients ([2]; TNBC (CIT naïve), n=3): 0 (0%) Responders (%) | ORR in IDO1 IHC 1/2/3 patients ([2]; TNBC (CIT naïve), n=8): 1 (12%) Responders (%) | ORR in PDL1 IHC 1/2/3 patients ([2]; TNBC (CIT naïve), n=8): 1 (12%) Responders (%) | ORR in all patients ([2]; TNBC (CIT naïve), n=11): 1 (9%) Responders (%) | ORR in IDO1 0 patients ([2]; UBC (CIT naïve), n=0): 0 (0%) Responders (%) | ORR in PDL1 0 patients ([2]; UBC (CIT naïve), n=0): 0 (0%) Responders (%) | ORR in IDO1 IHC 1/2/3 patients ([2]; UBC (CIT naïve), n=6): 2 (33%) Responders (%) | ORR in PDL1 IHC 1/2/3 patients ([2]; UBC (CIT naïve), n=6): 2 (33%) Responders (%) | ORR in all patients ([2]; UBC (CIT naïve), n=8): 3 (38%) Responders (%) | MTD [3]: not reached; also recorded: not identified; also recorded: No MTD was defined | Chromaturia, treatment-related AE ([4]; human): 20% | Discontinuations due to treatment related AEs ([4]; human): 9% | Fatigue, treatment-related AE ([4]; human): 22% | Grade ≥ 3 treatment-related AEs ([4]; human): 22% | Grade ≥ 3 treatment-related rash ([4]; human): 9% | Patients who discontinued treatment due to rash ([4]; human): 4% | Pink colored urine (chromaturia) ([4]; human): up to 20% | Rash overall ([4]; human): around 20% | Rash, treatment-related AE ([4]; human): 22% | Treatment related serious AEs ([4]; human): 10% | Relationship between dose and incidence or severity of AEs [4]: no clear relationship | Tolerability of the combination [4]: generally well-tolerated

NS(=O)(=O)NCCNc1nonc1C(=NO)Nc1ccc(F)c(Br)c1 [epacadostat]
mPFS (melanoma; epacadostat in combination with pembrolizumab): 4.7 mo.

pembrolizumab
mPFS (melanoma; pembrolizumab monotherapy): 4.9 mo.
